Where only a bound is given, the exact number is not on record here.

T1 sequence (P00746 26-253): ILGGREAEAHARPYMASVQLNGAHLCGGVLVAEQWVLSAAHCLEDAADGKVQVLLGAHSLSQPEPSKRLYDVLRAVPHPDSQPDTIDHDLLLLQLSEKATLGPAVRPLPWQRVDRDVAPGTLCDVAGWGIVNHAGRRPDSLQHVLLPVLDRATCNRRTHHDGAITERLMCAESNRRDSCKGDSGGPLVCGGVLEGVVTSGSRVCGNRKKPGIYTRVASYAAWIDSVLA

The first test addresses T1, Human Factor D (Homo sapiens, UniProt P00746).
T1 construct: purified from human serum; purchased Complement Technology, Inc; host or cells: human serum (natural protein, not recombinant)
As to the kind of experiment: Human Factor D Assay. It is filed as biochemical.
Details: not given
The method, then:
Human Factor D (purified from human serum, Complement Technology, Inc.) at 80 nM final concentration is incubated with test compound at various concentrations for 5 min at room temperature in 50 mM Tris, 1M NaCl, pH 7.5. A synthetic substrate Z-L-Lys-SBzl and DTNB (Ellman's reagent) are added to final concentrations of 100 μM each. […] IC50 values are calculated by nonlinear regression of complement Factor D reaction rates as a function of test compound concentration.
The IC50 is the concentration that gives 50% inhibition. `CC(=O)c1nn(CC(=O)N2[C@H](C(=O)Nc3nc(Br)ccc3C)C[C@@]3(CNC(=O)COCCOCCNC(=O)COCCOCCNC(=O)CC[C@H](NC(=O)CCCCCCCCCCCCCCCCC(=O)O)C(=O)O)C[C@@H]23)c2ccc(OC(=O)NC3CC3)cc12` [Compound 15, (S)-1-((1R,3S,5R)-2-(2-(3-acetyl-5-((cyclopropylcarbamoyl)oxy)-1H-indazol-1-yl)acetyl)-3-((6-bromo-3-methylpyridin-2-yl)carbamoyl)-2-azabicyclo[3.1.0]hexan-5-yl)-24-carboxy-3,12,21,26-tetraoxo-5,8,14,17-tetraoxa-2,11,20,25-tetraazatritetracontan-43-oic acid] yielded an IC50 below 1000 nM.

Still in this test, the particulars now being: Human Factor D 80 nM, substrate Z-L-Lys-SBzl, assay of Example 3; read-out: IC50 (Stars).
Take `CC(=O)c1nn(CC(=O)N2[C@H](C(=O)Nc3nc(Br)ccc3C)C[C@@]3(CO)C[C@@H]23)c2c(C)cc(-c3cnc(C)nc3)cc12` [Compound 21, (1R,3S,5S)-2-(2-(3-Acetyl-7-methyl-5-(2-methylpyrimidin-5-yl)-1H-indazol-1-yl)acetyl)-N-(6-bromo-3-methylpyridin-2-yl)-5-(hydroxymethyl)-2-azabicyclo[3.1.0]hexane-3-carboxamide]: the IC50 was below 1000 nM.

As to `CC(=O)c1nn(CC(=O)N2[C@H](C(=O)NCCc3ccccc3F)C[C@@]3(C)C[C@@H]23)c2c(C)cc(-c3cnc(C)nc3)cc12` [Compound 1, (1R,3S,5R)-2-(2-(3-Acetyl-7-methyl-5-(2-methylpyrimidin-5-yl)-1H-indazol-1-yl)acetyl)-N-(2-fluorophenethyl)-5-methyl-2-azabicyclo[3.1.0]hexane-3-carboxamide], the IC50 is below 1000 nM.

Take `COC(=O)c1ncc(-c2cc(C)c3c(c2)c(C(C)=O)nn3CC(=O)N2[C@H](C(=O)Nc3nc(Br)ccc3C)C[C@@]3(C)C[C@@H]23)cn1` [Compound 38, methyl 5-(3-acetyl-1-(2-((1R,3S,5R)-3-((6-bromo-3-methylpyridin-2-yl)carbamoyl)-5-methyl-2-azabicyclo[3.1.0]hexan-2-yl)-2-oxoethyl)-7-methyl-1H-indazol-5-yl)pyrimidine-2-carboxylate]: the IC50 is below 1000 nM.

Turning to `CC(=O)c1nn(CC(=O)N2[C@H](C(=O)NCCc3ccc(Cl)cc3Cl)C[C@@]3(C)C[C@@H]23)c2c(C)cc(-c3cnc(C)nc3)cc12` [Compound 5, (1R,3S,5R)-2-(2-(3-Acetyl-7-methyl-5-(2-methylpyrimidin-5-yl)-1H-indazol-1-yl)acetyl)-N-(2,4-dichlorophenethyl)-5-methyl-2-azabicyclo[3.1.0]hexane-3-carboxamide], the IC50 is below 1000 nM. Still for that read-out and setting: under `CC(=O)c1nn(CC(=O)N2[C@H](C(=O)Nc3cccc(C(F)(F)F)c3F)C[C@@]3(C)C[C@@H]23)c2ccc(-c3cnc(C)nc3)cc12` [Compound 24, (1R,3S,5R)-2-(2-(3-Acetyl-5-(2-methylpyrimidin-5-yl)-1H-indazol-1-yl)acetyl)-N-(2-fluoro-3-(trifluoromethyl)phenyl)-5-methyl-2-azabicyclo[3.1.0]hexane-3-carboxamide] stands below 1000 nM; under `CC(=O)c1nn(CC(=O)N2C[C@H](F)C[C@H]2C(=O)Nc2cccc(Br)n2)c2ccc(-c3ccc(C)nc3)cc12` [Compound 33], below 1000 nM.

Still in this test, the particulars now being: Human Factor D 80 nM, substrate Z-L-Lys-SBzl; Table 2; read-out: IC50 (Stars).
As to `COc1cc(Br)nc(NC(=O)[C@@H]2C[C@@]3(C)C[C@H]3N2C(=O)Cn2nc(C(C)=O)c3cc(-c4cnc(CO)nc4)ccc32)c1` [Compound 67, (1R,3S,5R)-2-(2-(3-acetyl-5-(2-(hydroxymethyl)pyrimidin-5-yl)-1H-indazol-1-yl)acetyl)-N-(6-bromo-4-methoxypyridin-2-yl)-5-methyl-2-azabicyclo[3.1.0]hexane-3-carboxamide], the IC50 is below 1000 nM. The same measure, in the same setting: the value for `CC(=O)c1nn(CC(=O)N2[C@H](C(=O)Nc3nc(Br)ccc3Cl)C[C@@]3(C)C[C@@H]23)c2c(C)cc(-c3cnc(CO)nc3)cc12` [Compound 80, (1R,3S,5R)-2-(2-(3-acetyl-5-(2-(hydroxymethyl)pyrimidin-5-yl)-7-methyl-1H-indazol-1-yl)acetyl)-N-(6-bromo-3-chloropyridin-2-yl)-5-methyl-2-azabicyclo[3.1.0]hexane-3-carboxamide] was below 1000 nM; that for `CC(=O)c1cn(CC(=O)N2[C@H](C(=O)Nc3nc(Br)c(F)cc3C)C[C@@]3(C)C[C@@H]23)c2c(C)cc(-c3cnc(C)nc3)cc12` [Compound 144, (1R,3S,5R)-2-(2-(3-acetyl-7-methyl-5-(2-methylpyrimidin-5-yl)-1H-indol-1-yl)acetyl)-N-(6-bromo-5-fluoro-3-methylpyridin-2-yl)-5-methyl-2-azabicyclo[3.1.0]hexane-3-carboxamide] was below 1000 nM; that for `CC(=O)c1nn(CC(=O)N2[C@H](C(=O)N[C@@H](C)c3ccc4c(c3)CCCC4)C[C@@]3(C)C[C@@H]23)c2c(C)cc(-c3cnc(C)nc3)cc12` [Compound 151, (1R,3S,5R)-2-{2-[3-acetyl-7-methyl-5-(2-methylpyrimidin-5-yl)indazol-1-yl]acetyl}-5-methyl-N-[(1S)-1-(5,6,7,8-tetrahydronaphthalen-2-yl)ethyl]-2-azabicyclo[3.1.0]hexane-3-carboxamide] was 1000 to 10000 nM.

Take `CC(=O)c1nn(CC(=O)N2[C@H](C(=O)Nc3cncc(Br)n3)C[C@@]3(C)C[C@@H]23)c2ccc(-c3cnc(CO)nc3)cc12` [Compound 64, (1R,3S,5R)-2-(2-(3-acetyl-5-(2-(hydroxymethyl)pyrimidin-5-yl)-1H-indazol-1-yl)acetyl)-N-(6-bromopyrazin-2-yl)-5-methyl-2-azabicyclo[3.1.0]hexane-3-carboxamide]: the IC50 is below 1000 nM. As for `CC(=O)c1nn(CC(=O)N2[C@H](C(=O)NC(C)Cc3ccc(O)cc3)C[C@@]3(C)C[C@@H]23)c2c(C)cc(-c3cnc(C)nc3)cc12` (stereo partly drawn) [Compound 147, (1R,3S,5R)-2-{2-[3-acetyl-7-methyl-5-(2-methylpyrimidin-5-yl)indazol-1-yl]acetyl}-N-[1-(4-hydroxyphenyl)propan-2-yl]-5-methyl-2-azabicyclo[3.1.0]hexane-3-carboxamide], the IC50 was below 1000 nM. Still for that read-out and setting: under `CC(=O)c1cn(CC(=O)N2[C@H](C(=O)Nc3cncc(Br)n3)C[C@@]3(C)C[C@@H]23)c2c(C)cc(-c3cnc(C)nc3)cc12` [Compound 155, (1R,3S,5R)-2-(2-(3-acetyl-7-methyl-5-(2-methylpyrimidin-5-yl)-1H-indol-1-yl)acetyl)-N-(6-bromopyrazin-2-yl)-5-methyl-2-azabicyclo[3.1.0]hexane-3-carboxamide] stands below 1000 nM. `CC(=O)c1nn(CC(=O)N2[C@H]3CC[C@H](C3)[C@H]2C(=O)Nc2nc(C(F)(F)F)ccc2C)c2c(C)cc(-c3cnc(C(C)O)nc3)cc12` (stereo partly drawn) [Compound 171, (1S,3S,4R)-2-(2-(3-acetyl-5-(2-(1-hydroxyethyl)pyrimidin-5-yl)-7-methyl-1H-indazol-1-yl)acetyl)-N-(3-methyl-6-(trifluoromethyl)pyridin-2-yl)-2-azabicyclo[2.2.1]heptane-3-carboxamide]: the IC50 is below 1000 nM. The same measure, in the same setting: the value for `CC(=O)c1cn(CC(=O)N2[C@H](C(=O)Nc3nc(C(F)(F)F)ccc3C)C[C@@]3(C)C[C@@H]23)c2c(C)cc(-c3cnc(C)c(C)n3)cc12` [Compound 222, (1R,3S,5R)-2-(2-(3-acetyl-5-(5,6-dimethylpyrazin-2-yl)-7-methyl-1H-indol-1-yl)acetyl)-5-methyl-N-(3-methyl-6-(trifluoromethyl)pyridin-2-yl)-2-azabicyclo[3.1.0]hexane-3-carboxamide] was below 1000 nM. As for `CC(=O)c1nn(CC(=O)N2[C@H](C(=O)NC3CCC4(CC3)OCCO4)C[C@@]3(C)C[C@@H]23)c2c(C)cc(-c3cnc(C)nc3)cc12` [Compound 138, (1R,3S,5R)-2-{2-[3-acetyl-7-methyl-5-(2-methylpyrimidin-5-yl)indazol-1-yl]acetyl}-N-{1,4-dioxaspiro[4.5]decan-8-yl}-5-methyl-2-azabicyclo[3.1.0]hexane-3-carboxamide], the IC50 was above 10000 nM.

Regarding `CC(=O)c1nn(CC(=O)N2[C@H](C(=O)Nc3cncc(Br)n3)C[C@@]3(C)C[C@@H]23)c2c(C)cc(-c3ccc(CO)nc3)cc12` [Compound 119, (1R,3S,5R)-2-(2-(3-acetyl-5-(6-(hydroxymethyl)pyridin-3-yl)-7-methyl-1H-indazol-1-yl)acetyl)-N-(6-bromopyrazin-2-yl)-5-methyl-2-azabicyclo[3.1.0]hexane-3-carboxamide], the IC50 was below 1000 nM.

As to `COCc1ccc(Br)nc1NC(=O)[C@@H]1C[C@@]2(C)C[C@H]2N1C(=O)Cn1cc(C(C)=O)c2cc(-c3cnc4cc(C)nn4c3)cc(C)c21` [Compound 215, (1R,3S,5R)-2-(2-(3-acetyl-7-methyl-5-(2-methylpyrazolo[1,5-a]pyrimidin-6-yl)-1H-indol-1-yl)acetyl)-N-(6-bromo-3-(methoxymethyl)pyridin-2-yl)-5-methyl-2-azabicyclo[3.1.0]hexane-3-carboxamide], the half-maximal inhibitory concentration (IC50) was below 1000 nM. The same measure, in the same setting: the value for `CC(=O)c1nn(CC(=O)N2[C@H]3CC[C@H](C3)[C@H]2C(=O)Nc2nc(C(F)(F)F)ccc2C)c2c(C)cc(-c3cnc4cc(C)nn4c3)cc12` [Compound 223, (1S,3S,4R)-2-(2-(3-acetyl-7-methyl-5-(2-methylpyrazolo[1,5-a]pyrimidin-6-yl)-1H-indazol-1-yl)acetyl)-N-(3-methyl-6-(trifluoromethyl)pyridin-2-yl)-2-azabicyclo[2.2.1]heptane-3-carboxamide] was below 1000 nM. On the same count and under the same terms, under `COCCOC[C@@]12C[C@@H](C(=O)Nc3nc(Br)ccc3C)N(C(=O)Cn3nc(C(C)=O)c4cc(-c5cnc(CO)nc5)cc(C)c43)[C@@H]1C2` [Compound 108, (1R,3S,5S)-2-(2-(3-acetyl-5-(2-(hydroxymethyl)pyrimidin-5-yl)-7-methyl-1H-indazol-1-yl)acetyl)-N-(6-bromo-3-methylpyridin-2-yl)-5-((2-methoxyethoxy)methyl)-2-azabicyclo[3.1.0]hexane-3-carboxamide] stands 1000 to 10000 nM.

These data come from patent US20230022157A1 (Achillion Pharmaceuticals, Inc., priority 2018, published 2023).
